Measurements taken from US5331006A, “Amino acid analogs as CCK antagonists” (Warner-Lambert Company, priority 1991, dated 1994).
Like-named read-outs stand apart in the source and are kept apart here.

Target: T1, CCK receptor sites (Mus musculus, UniProt P56481)
T1 construct: from tissue; host or cells: cerebral cortex membranes of male CFLP mice
T1 sequence (P56481 1-453): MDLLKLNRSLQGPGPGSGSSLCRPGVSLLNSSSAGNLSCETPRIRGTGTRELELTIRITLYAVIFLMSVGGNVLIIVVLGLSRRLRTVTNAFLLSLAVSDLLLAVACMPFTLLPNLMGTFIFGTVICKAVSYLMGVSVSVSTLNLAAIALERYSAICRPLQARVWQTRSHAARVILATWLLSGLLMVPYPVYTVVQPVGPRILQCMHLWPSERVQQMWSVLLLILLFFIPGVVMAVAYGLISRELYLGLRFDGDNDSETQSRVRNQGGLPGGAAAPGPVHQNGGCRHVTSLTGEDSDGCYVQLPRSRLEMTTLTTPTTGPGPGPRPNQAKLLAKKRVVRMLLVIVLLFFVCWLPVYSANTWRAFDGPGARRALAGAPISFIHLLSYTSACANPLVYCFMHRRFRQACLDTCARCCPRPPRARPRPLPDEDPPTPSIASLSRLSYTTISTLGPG
Experiment: CCK receptor binding, displacement of tritiated pentagastrin from mouse cerebral cortex membranes
Parameters: key: IA = Inactive in respect to this binding assay
Details: 2 nM tritiated pentagastrin, mouse cerebral cortical membranes, Ki from IC50 by Cheng-Prusoff
Description: The biological activity of compounds of the present invention was evaluated employing an initial screening test which rapidly and accurately measured the binding of the tested compound to known CCK receptor sites. […] (See Hays, et al, Neuropeptides 1:53-62, 1980; and Satuer, et al, Science 208:1155-1156, 1980.)
In this screening test the cerebral cortices taken from male CFLP mice weighing between 30 to 40 g were dissected on ice, weighed, and homogenized in 10 volumes of 50 mM Tris-HCl buffer (pH 7.4 at 0° to 4° C.). The resulting suspension was centrifuged, the supernate was discarded, and the pellet was washed by resuspension in Tris-HCl buffer followed by recentrifugation. The final pellet was resuspended in 20 volumes of […] Hepes buffer (pH 7.2 at 23° C.) containing 130 mM NaCl, […] KCl, […] MgCl2, […] EDTA, 5 mg/mL bovine albumin, and bacitracin (0.25 mg/mL).
In saturation studies, cerebral cortical membranes were incubated at 23° C. for 120 minutes in a final volume of 500 μL of Hepes incubation buffer (pH 7.2) together with 0.2-20 nM tritiated-pentagastrin (Amersham International, England).
In the displacement experiments, membranes were incubated with a single concentration (2 nM) of ligand, together with increasing concentrations of competitive test compound. In each case, the nonspecific binding was defined as that persisting in the presence of the unlabeled octapeptide CCK26-33 (10^-6 M).
Following incubation, radioactivity bound to membranes was separated from that free in solution by rapid filtration through Whatman GF/B filters and washed three times with 4 mL of ice cold Tris-HCl buffer. Filters from samples incubated with tritiated pentagastrin were placed in polyethylene vials with 4 mL of scintillation cocktail, and the radioactivity was estimated by liquid scintillation spectrometry (efficiency 47% to 52%).
The specific binding to CCK receptor sites was defined as the total bound tritiated pentagastrin minus the amount of tritiated pentagastrin bound in the presence of 10^-6 octapeptide, CCK26-33.
Saturation curves for specific tritiated pentagastrin binding to mouse cortical membranes were analyzed by the methods of Scatchard (Ann. New York Acad. Sci. 51:660-672, 1949; Hill, J. Physiol. 40:IV-VIII, 1910) to provide estimates for the maximum number of binding sites (βmax)and the equilibrium dissociation constant (Ka).
In displacement experiments, inhibition curves were analyzed by either logit-log plots or the iterative curve fitting computer program ALLFIT (DeLean, Munson, and Redbard, 1978) to provide estimates of the IC50 and nH (apparent Hill coefficient) values). IC50 values were defined as the concentration of test compound required to produce 50% inhibition of specific binding).
The inhibition constant (Ki) of the test compound was then calculated according to the Cheng-Prusoff equation: [formula] where [L] is the concentration of radiolabel and Ka is the equilibrium dissociation constant.
The Ki values for several representative compounds of the present invention are present in Table II.

SMILES	Ki (read-out: Ki)	Ki
CC(Cc1cc2c3ccccc3n(S(C)(=O)=O)c2cn1)(NC(=O)OC1C2CC3CC(C2)CC1C3)C(=O)NC(CO)Cc1ccccc1 (centres unmarked)	844 nM	–
CC(Cc1cc2c3ccccc3n(S(C)(=O)=O)c2cn1)(NC(=O)OC1C2CC3CC(C2)CC1C3)C(=O)NCCc1ccccc1 (centres unmarked)	1990 nM	–
CC(Cc1cc2c(cn1)[nH]c1ccccc12)(NC(=O)OC1C2CC3CC(C2)CC1C3)C(=O)NCCc1ccccc1 (centres unmarked)	2170 nM	–
CC(Cc1ccccn1)(NC(=O)OC1C2CC3CC(C2)CC1C3)C(=O)NCCc1ccccc1 (centres unmarked)	3000 nM	–
CC(Cc1cc2c(cn1)[nH]c1ccccc12)(NC(=O)OC1C2CC3CC(C2)CC1C3)C(=O)NC(CO)Cc1ccccc1 (centres unmarked)	1390 nM	–
CC(Cc1ccncc1)(NC(=O)OC1C2CC3CC(C2)CC1C3)C(=O)NCCc1ccccc1 (centres unmarked)	3000 nM	–
CC(Cc1cccnc1)(NC(=O)OC1C2CC3CC(C2)CC1C3)C(=O)NCCc1ccccc1 (centres unmarked)	–	IA
CC(Cc1cnc2ccccc2c1)(NC(=O)OC1C2CC3CC(C2)CC1C3)C(=O)NCCc1ccccc1 (centres unmarked)	304 nM	–
CC(Cc1ccc2ccccc2n1)(NC(=O)OC1C2CC3CC(C2)CC1C3)C(=O)NCC(NC(=O)CCC(=O)O)c1ccccc1 (centres unmarked)	290 nM	–
CC(Cc1ccnc2ccccc12)(NC(=O)OC1C2CC3CC(C2)CC1C3)C(=O)NCC(NC(=O)CCC(=O)O)c1ccccc1 (centres unmarked)	88 nM	–
CC(CC1CCc2ccccc2N1)(NC(=O)OC1C2CC3CC(C2)CC1C3)C(=O)NCC(NC(=O)CCC(=O)O)c1ccccc1 (centres unmarked)	690 nM	–
CC(CC1C=Cc2ccccc2N1)(NC(=O)OC1C2CC3CC(C2)CC1C3)C(=O)NCC(NC(=O)CCC(=O)O)c1ccccc1 (centres unmarked)	3000 nM	–
CC(Cc1ccc[n+]([O-])c1)(NC(=O)OC1C2CC3CC(C2)CC1C3)C(=O)NCCc1ccccc1 (centres unmarked)	–	IA
CC(Cc1ccncc1)(NC(=O)OC1C2CC3CC(C2)CC1C3)C(=O)NCC(NC(=O)CCC(=O)O)c1ccccc1 (centres unmarked)	220 nM	–
CN1c2ccccc2C(c2ccccc2)=NCC1CC(C)(NC(=O)OC1C2CC3CC(C2)CC1C3)C(=O)NCC(NC(=O)CCC(=O)O)c1ccccc1 (centres unmarked)	290 nM	–
CC(Cc1ccccn1)(NC(=O)OC1C2CC3CC(C2)CC1C3)C(=O)NC(CO)Cc1ccccc1 (single isomer, unassigned) [drawing 14 (Diast I)]	1000 nM	–
CC(Cc1cccc[n+]1[O-])(NC(=O)OC1C2CC3CC(C2)CC1C3)C(=O)NC(CO)Cc1ccccc1 (single isomer, unassigned) [drawing 20]	–	IA
CC(Cc1cccc[n+]1[O-])(NC(=O)OC1C2CC3CC(C2)CC1C3)C(=O)NC(CO)Cc1ccccc1 (single isomer, unassigned) [drawing 22 (Diast II)]	–	IA
CC(Cc1cccc[n+]1[O-])(NC(=O)OC1C2CC3CC(C2)CC1C3)C(=O)NCCc1ccccc1 (centres unmarked) [drawing 22 (H H H H H)]	–	IA
CC(Cc1cccc2ccccc12)(NC(=O)OC1C2CC3CC(C2)CC1C3)C(=O)NC(CO)Cc1ccccc1 (centres unmarked) [drawing 24]	720 nM	–
CC(Cc1cccc2ccccc12)(NC(=O)OC1C2CC3CC(C2)CC1C3)C(=O)NC(CO)Cc1ccccc1 (centres unmarked) [drawing 26]	14 nM	–
CC(Cc1coc2ccccc12)(NC(=O)OC1C2CC3CC(C2)CC1C3)C(=O)NC(CO)Cc1ccccc1 (centres unmarked) [drawing 27 (H H CH2 OH H H)]	360 nM	–
CC(Cc1coc2ccccc12)(NC(=O)OC1C2CC3CC(C2)CC1C3)C(=O)NCCc1ccccc1 (centres unmarked) [drawing 27 (H H H H H)]	990 nM	–
